From patent US4206221A, “Cephalomannine and its use in treating leukemic tumors” (priority 1979, dated 1980)
In brackets after ≈: the same amount, converted by molar mass. Read-outs that look alike come from different tables or passages of the source.

Key:
[1] = system: KB cell culture; assay: cells; type: cell-based; settings: for IC50: Homo sapiens, KB, 72 h, read-out: ED 50 (dose that inhibits growth to 50% of control growth); for activity in KB cell culture (in words): assay of extract and of fractions during isolation
Method: The chemotherapeutic activities of the fractions obtained in the isolation procedure may be determined by a KB Cell Culture Screen in accordance with the National Cancer Institute Protocol 1.600 [Geran et al., Cancer Chemother. Rep., Part 3, 3: 17 (1972)]. […] Such a dose is referred to as ED 50 and activity is indicated for ED 50 levels of ≤30 μg./ml.

[2] = system: lymphocytic leukemia cells of the strain P388; assay: P388 lymphocytic leukemia implanted in mice, survival time (T/C), National Cancer Institute Protocol 1.200; type: in vivo; settings: intraperitoneal, once a day for 9 days, female DBA/2 mice, 125% or above considered active
Excerpt: The effectiveness of alkaloid compounds against lymphocytic leukemia cells of the strain P388 implanted in mice is another method of determining activity. These assays are made according to the National Cancer Institute Protocol 1.200 described in Geran et al. referred to above. The usefulness of cephalomannine as compared to taxol was ascertained by assaying Fractions K263 and K264 from Example 1 by this procedure. Starting 24 hr. after the tumor implantation, previously determined dosages of each compound were injected intraperitoneally once a day for 9 days. Survival time of treated leukemic mice is compared to that of untreated leukemic mice (T/C×100). A T/C value of 100% indicated no activity. A T/C value greater than 100% means that the treated mice are surviving longer than the control mice. A compound giving a T/C value greater than 125% is indicative of activity as defined by the NCI Protocols, above.
^1 All mice were female, DBA/2.
^2 The injection vehicle was saline + Tween 80 + alcohol.
^3 One intraperitoneal injection per day for 9 days.
^4 T/C = mean survival time of test animals/mean survival time of […]

[3] = system: leukemia; assay: activity against leukemia in animals (general statement); settings: in vivo
[4] = system: leukemia; settings: background, literature; cited from earlier work

Compound | IC50 [1] | activity in KB cell culture (in words) [1] | T/C (mean survival time of test animals/mean survival time of control animals) ([2]; 1.00 mg./kg./inj.) | T/C (mean survival time of test animals/mean survival time of control animals) ([2]; 1.40 mg./kg./inj.) | T/C (mean survival time of test animals/mean survival time of control animals) ([2]; 2.20 mg./kg./inj.) | T/C (mean survival time of test animals/mean survival time of control animals) ([2]; 3.30 mg./kg./inj.) | activity against leukemia in animals (in words) [3] | IC50 ([1]; 3 days after drug addition, active if ED 50 ≤30 μg./ml.) | antileukemic / antitumor / chemotherapeutic activity (in words) [4]
CC=C(C)C(=O)NC(c1ccccc1)C(O)C(=O)O[C@H]1C[C@@]2(O)[C@@H](OC(=O)c3ccccc3)[C@@H]3[C@]4(OC(C)=O)CO[C@@H]4C[C@H](O)[C@@]3(C)C(=O)[C@H](OC(C)=O)C(=C1C)C2(C)C (single isomer, unassigned) [cephalomannine] | 3.8 ng/mL (≈ 4.57 nM) | showed activity | 152% | 159% | 162% | 180% | demonstrates activity against leukemia in animals | – | –
CC(=O)O[C@H]1C(=O)[C@@]2(C)[C@H]([C@H](OC(=O)c3ccccc3)[C@]3(O)C[C@H](OC(=O)C(O)C(NC(=O)c4ccccc4)c4ccccc4)C(C)=C1C3(C)C)[C@]1(OC(C)=O)CO[C@@H]1C[C@@H]2O (single isomer, unassigned) [taxol, reference compound] | – | showed activity | – | 148% | 152% | – | – | 1.2 ng/mL (≈ 1.41 nM) | antileukemic and antitumor agent
